ChEMBL document CHEMBL1221321, “Synthesis and properties of macrolones characterized by two ether bonds in the linker” (Bioorg Med Chem, 2010)
Values after ≈ are worked out from the molar mass of the structure shown.

Experiments:
Streptococcus pneumoniae [1] = assay: Antibacterial activity against inducible resistance to macrolide and constitutive resistance to lincosamide Streptococcus pneumoniae 134 GR M by broth microdilution method; type: functional
Streptococcus pneumoniae [2] = assay: Antibacterial activity against efflux-mediated macrolide-resistance Streptococcus pneumoniae Ci137 by broth microdilution method; type: functional; conditions: read-out: MIC
Streptococcus pyogenes [3] = assay: Antibacterial activity against efflux-mediated macrolide-resistance Streptococcus pyogenes 2 by broth microdilution method; type: functional
Staphylococcus aureus [4] = assay: Antibacterial activity against inducible resistance to macrolide, licosamide, and streptogramin Staphylococcus aureus 90265/97 by broth microdilution method; type: functional
Streptococcus pneumoniae [5] = assay: Antibacterial activity against constitutive MLS resistance Streptococcus pneumoniae 58 by broth microdilution method; type: functional
Staphylococcus aureus [6] = assay: Antibacterial activity against efflux-mediated macrolide-resistance Staphylococcus aureus PK1 by broth microdilution method; type: functional
HepG2 = assay: Cytotoxicity against human HepG2 cells after 24 hrs by MTS assay; type: cell-based; conditions: HepG2, 24 h
Streptococcus pyogenes [7] = assay: Antibacterial activity against inducible resistance to macrolide, licosamide and streptogramin Streptococcus pyogenes 11 by broth microdilution method; type: functional; conditions: read-out: MIC
THP-1 = assay: Cytotoxicity against human THP1 cells after 24 hrs by MTS assay; type: cell-based; conditions: THP-1, 24 h
Haemophilus influenzae = assay: Antibacterial activity against Haemophilus influenzae ATCC 49247 by broth microdilution method; type: functional
Streptococcus pyogenes [8] = assay: Antibacterial activity against constitutive MLS resistance Streptococcus pyogenes 166 GR-Micro by broth microdilution method; type: functional

| SMILES | MIC (Streptococcus pneumoniae [1]) | MIC (Streptococcus pneumoniae [2]) | MIC (Streptococcus pyogenes [3]) | MIC (Staphylococcus aureus [4]) | MIC (Streptococcus pneumoniae [5]) | MIC (Staphylococcus aureus [6]) | IC50 (HepG2) | MIC (Streptococcus pyogenes [7]) | IC50 (THP-1) | MIC (Haemophilus influenzae) | MIC (Streptococcus pyogenes [8]) |
| --- | --- | --- | --- | --- | --- | --- | --- | --- | --- | --- | --- |
| CC[C@H]1OC(=O)[C@H](C)[C@@H](O[C@H]2C[C@@](C)(OC)[C@@H](OCCCOCCCc3ccc4c(c3)c(=O)c(C(=O)O)cn4CCN(C)C)[C@H](C)O2)[C@H](C)[C@@H](O[C@@H]2O[C@H](C)C[C@H](N(C)C)[C@H]2O)[C@](C)(O)C[C@@H](C)CN(C)[C@H](C)[C@@H](O)[C@]1(C)O | 0.25 µg/mL (≈ 0.226 µM) | ≤ 0.125 µg/mL | 0.25 µg/mL (≈ 0.226 µM) | ≤ 0.125 µg/mL | ≤ 0.125 µg/mL | ≤ 0.125 µg/mL | > 50 µM | ≤ 0.125 µg/mL | > 50 µM | 4 µg/mL (≈ 3.61 µM) | 1 µg/mL (≈ 0.903 µM) |
| CC[C@H]1OC(=O)[C@H](C)[C@@H](O[C@H]2C[C@@](C)(OC)[C@@H](OCCCOCCCc3ccc4c(c3)c(=O)c(C(=O)O)cn4CCOC)[C@H](C)O2)[C@H](C)[C@@H](O[C@@H]2O[C@H](C)C[C@H](N(C)C)[C@H]2O)[C@](C)(O)C[C@@H](C)CN(C)[C@H](C)[C@@H](O)[C@]1(C)O | ≤ 0.125 µg/mL | ≤ 0.125 µg/mL | ≤ 0.125 µg/mL | ≤ 0.125 µg/mL | ≤ 0.125 µg/mL | ≤ 0.125 µg/mL | > 50 µM | ≤ 0.125 µg/mL | > 50 µM | 2 µg/mL (≈ 1.83 µM) | ≤ 0.125 µg/mL |
| CC[C@H]1OC(=O)[C@H](C)[C@@H](O[C@H]2C[C@@](C)(OC)[C@@H](OCCCOCCCc3ccc4c(c3)c(=O)c(C(=O)O)cn4CC)[C@H](C)O2)[C@H](C)[C@@H](O[C@@H]2O[C@H](C)C[C@H](N(C)C)[C@H]2O)[C@](C)(O)C[C@@H](C)CN(C)[C@H](C)[C@@H](O)[C@]1(C)O | ≤ 0.125 µg/mL | ≤ 0.125 µg/mL | ≤ 0.125 µg/mL | ≤ 0.125 µg/mL | ≤ 0.125 µg/mL | ≤ 0.125 µg/mL | > 50 µM | ≤ 0.125 µg/mL | > 50 µM | 1 µg/mL (≈ 0.94 µM) | ≤ 0.125 µg/mL |
